Measurements as given in patent US9304132B2, “Molecular delivery with nanowires” (President and Fellows of Harvard College, priority 2009, dated 2016).

What was measured:
Assay type in all cases: cell-based
[1] = test system: neural precursor cells (NPCs); test: Control over growth and differentiation of neural precursor cells on Ara-C coated Si NWs (immunofluorescence)
Protocol: Si NWs were grown on a Si substrate via CVD. Substrates were first prepared by immobilizing Au nanoparticles on a precleaned Si (111) substrate using a thin polyelectrolyte layer as previously described (J. Am. Chem. Soc. 2008, 130, 6252-6258; Nano Lett. 2004, 4, 1987-1990; J. Am. Chem. Soc. 2001, 123, 9769-9779; J. Am. Chem. Soc. 2008, 130, 6252-6258). Si NWs were then synthesized by the vapor transport method using SiCl4 as the precursor for Si NW growth and H2 (10%) in argon as the carrier gas with minor modifications from that which was previously reported (Nano Lett. 2005, 5, 457-460). Briefly, a Si (111) substrate, covered with Au nanoparticles patterned into stripes by flowing a solution of 70 nm Au nanoparticles across poly-l-lysine coated silicon using PDMS microfluidic channels, was placed inside a 1″ diameter quartz tube and loaded at the center of a 12″ horizontal tube furnace (Lindberg/Blue M). After the quartz tube was evacuated and flushed repeatedly with H2 (10%) in argon gas mixture to minimize oxygen contamination, it was charged with H2 (10%) in argon gas up to 760 torr and the pump line was quickly replaced with a line that enabled venting through a bubbler filled with a saturated K2CO3 aqueous solution, meant to trap the byproduct of SiCl4 decomposition, gaseous HCl. […]

[2] = test system: HeLa cells; test: Apoptosis assay (TUNEL / Annexin V) of HeLa cells on inhibitor-coated Si NWs after actinomycin-D and TNF-α; conditions: Si NWs treated with 100 mM inhibitor; actinomycin-D 1 μg/mL, TNF-α 2 ng/mL; cells on uncoated NWs died
Protocol: The silanized Si NWs (produced via CVD prior to silanization) were treated with 100 mM Ac-DEVD-CHO, an apoptosis inhibitor, in PBS at room temperature for 1 hr, and washed in PBS three times for 2 min each. HeLa cells (5×10^4 cells/mL) in DMEM media were added onto the Si NWs, and cultured in a CO2 incubator at 37° C. overnight. The cell treated Si NWs were then transferred into a fresh DMEM media containing actinomycin-D at the final concentration of 1 μg/mL, and incubated in a CO2 incubator at 37° C. for 30 min, followed by addition of TNF-α at the final concentration of 2 ng/mL. After incubation in CO2 incubator at 37° C. for indicated hours, the cells on the Si NWs were assayed for apoptosis.
Cells were analyzed for apoptosis by the Terminal Deoxynucleotide Transferase dUTP Nick End Labeling (TUNEL) assay or by the Annexin V assay. TUNEL staining was performed using the apoptosis detection kit according to the manufacturer's protocol with minor modifications. […] After blocking, streptavidin-Cy3 at 20 μg/mL and WGA Alexa Fluor 488 at 50 μg/mL were incubated with the Si NWs for 30 min at room temperature, and washed in PBC three times for 5 min each, followed by examination under a fluorescence microscope. […] After incubation for 15 min at room temperature and washes in binding buffer three times for 1 min each, cells were analyzed under a fluorescence microscope.

[3] = test system: Mouse embryonic stem cells (mES cells); test: Si NW delivery into mouse embryonic stem cells; conditions: delivered by Si NWs
Protocol: Mouse embryonic stem cells (mES cells) were also used in this study. Delivery of molecules (including Cre Recombinase proteins) into mES cells was carried out in a manner similar to that described in Example 3.

Q: With Nc1ccn([C@@H]2O[C@H](CO)[C@@H](O)[C@@H]2O)c(=O)n1 [Ara-C, Cytarabine] as the molecule, how does the “proliferation of glial-like cell plated atop Ara-C coated NWs” value ([1]; Ara-C 1 mg/mL, 5 uL coated on silanized CVD Si NWs, examined on sixth day) read?
A: survived but did not proliferate

Q: What about the “cell type mixture in regions containing NWs” value ([1]; Ara-C coated NWs, regions without NWs showed only mitotic cell types, sixth day) of the same molecule?
A: neuron heavy

Q: Ac-DEVD-CHO was tested. Which “cell survival after apoptosis induction” value [2] did it give?
A: survived

B1: Cre Recombinase proteins: Cre Recombinase proteins delivered by Si NWs into mES cells (protein, UniProt P06956 1-343, looked up)
Recombinase cre: MSNLLTVHQNLPALPVDATSDEVRKNLMDMFRDRQAFSEHTWKMLLSVCRSWAAWCKLNNRKWFPAEPEDVRDYLLYLQARGLAVKTIQQHLGQLNMLHRRSGLPRPSDSNAVSLVMRRIRKENVDAGERAKQALAFERTDFDQVRSLMENSDRCQDIRNLAFLGIAYNTLLRIAEIARIRVKDISRTDGGRMLIHIGRTKTLVSTAGVEKALSLGVTKLVERWISVSGVADDPNNYLFCRVRKNGVAAPSATSQLSTRALEGIFEATHRLIYGAKDDSGQRYLAWSGHSARVGAARDMARAGVSIPEIMQAGGWTNVNIVMNYIRNLDSETGAMVRLLEDGD
Q: With B1 as the molecule, how does the “EGFP expression in transgenic foxed-eGFP mES cells” value [3] read?
A: expressed EGFP
